This experiment concerns the target Signal transducer and activator of transcription 3 (Homo sapiens, UniProt P40763). Briefly: Inhibition of STAT3 dimer DNA binding activity by ELISA after 30 mins.

Starred links: 1 amine or outer side, 2 acyl side, 3 side chain; linkers in the order of their positions; H or OH if unused. Non-standard residues stand in square brackets, D forms with d. Residues, ends and D or L forms follow the SMILES beside them. Phe(4-tetrazol-5-yl) = N[C@@H](Cc1ccc(-c2nnn[nH]2)cc1)C(=O)O; X1 = O=C([C@H](Cc1ccc(Cc2nn[nH]n2)cc1)N[*:1])[*:2]

Chain of Signal transducer and activator of transcription 3 (P40763 whole entry): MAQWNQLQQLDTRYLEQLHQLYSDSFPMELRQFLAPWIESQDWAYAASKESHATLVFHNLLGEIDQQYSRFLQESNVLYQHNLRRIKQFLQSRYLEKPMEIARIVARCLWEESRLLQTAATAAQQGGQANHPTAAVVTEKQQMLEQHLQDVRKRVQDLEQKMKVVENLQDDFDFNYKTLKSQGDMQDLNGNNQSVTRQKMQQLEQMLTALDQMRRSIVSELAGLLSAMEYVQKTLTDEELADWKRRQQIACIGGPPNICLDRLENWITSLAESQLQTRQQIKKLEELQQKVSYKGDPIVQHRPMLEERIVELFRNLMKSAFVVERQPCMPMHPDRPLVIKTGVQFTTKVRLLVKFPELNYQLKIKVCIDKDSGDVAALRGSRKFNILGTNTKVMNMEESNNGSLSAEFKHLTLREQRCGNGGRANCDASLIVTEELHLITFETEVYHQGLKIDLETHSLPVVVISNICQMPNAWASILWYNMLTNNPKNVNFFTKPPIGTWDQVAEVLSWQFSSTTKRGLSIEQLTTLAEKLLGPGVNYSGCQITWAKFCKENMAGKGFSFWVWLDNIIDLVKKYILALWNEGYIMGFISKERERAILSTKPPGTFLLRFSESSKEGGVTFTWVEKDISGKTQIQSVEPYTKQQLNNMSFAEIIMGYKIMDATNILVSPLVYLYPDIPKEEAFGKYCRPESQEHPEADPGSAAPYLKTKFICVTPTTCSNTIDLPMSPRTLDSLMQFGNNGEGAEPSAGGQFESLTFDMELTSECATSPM

For the compound `CC(=O)N[C@@H](Cc1ccc(-c2nnn[nH]2)cc1)C(=O)N[C@@H](CC(C)C)C(=O)N1CCC[C@H]1C(=O)N[C@@H](CCC(N)=O)C(=O)N[C@H](C(=O)N[C@H](C(=O)O)C(C)C)[C@@H](C)O` (Ac-[Phe(4-tetrazol-5-yl)]LPQTV-OH), the IC50 is greater than 0.8 µM.

Compound `CC(=O)N[C@@H](Cc1ccc(Cc2nn[nH]n2)cc1)C(=O)N[C@@H](CC(C)C)C(=O)N1CCC[C@H]1C(=O)N[C@@H](CCC(N)=O)C(=O)N[C@H](C(=O)N[C@H](C(=O)O)C(C)C)[C@@H](C)O` (Ac-[X1]LPQTV-OH) yielded a 50% inhibitory concentration (IC50) greater than 1 µM.
